Experimental data as given in ChEMBL document CHEMBL1909046, “DrugMatrix in vitro pharmacology data”.

Experiments:
[1] = DRUGMATRIX: Glutamate, NMDA, Agonism radioligand binding (ligand: [3H] CGP-39653); format: cell membranes, Rattus norvegicus, Wistar, Cerebral cortex, Membrane; conditions: Not Active = under 50% inhibition at 10 µM
[2] = biological target: Aldo-keto reductase family 1 member B1 (Rattus norvegicus, UniProt P07943); format: tissue-based, Lens of camera-type eye;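 note: inhibition of aldose reductase enzyme activity, measured with DL-glyceraldehyde as the substrate; in other assays of this panel Not Active means under 50% inhibition at 10 µM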
[3] = biological target: T1, Adenosine receptor A3 (Homo sapiens, UniProt P0DMS8); format: cell membranes, CHO-K1, Membrane; conditions: cho-k1;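 note: radioligand binding assay with AB-MECA serving as the labeled ligand; in other assays of this panel Not Active means under 50% inhibition at 10 µM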
T1 sequence (P0DMS8 whole entry): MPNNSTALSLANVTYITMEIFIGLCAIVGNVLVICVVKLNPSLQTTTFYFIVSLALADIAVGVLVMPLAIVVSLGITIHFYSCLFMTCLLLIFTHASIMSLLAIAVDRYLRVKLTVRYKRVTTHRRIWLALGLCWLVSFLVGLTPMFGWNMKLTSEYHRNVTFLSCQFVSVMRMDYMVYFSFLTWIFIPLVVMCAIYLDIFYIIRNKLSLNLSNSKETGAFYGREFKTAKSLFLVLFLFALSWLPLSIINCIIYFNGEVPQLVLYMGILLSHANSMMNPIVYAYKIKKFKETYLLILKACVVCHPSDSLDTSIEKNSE

[4] = DRUGMATRIX: Leukotriene, BLT (LTB4) radioligand binding (ligand: [3H]LTB4); format: cell membranes, Membrane; conditions: u-937; Not Active = under 50% inhibition at 10 µM
[5] = biological target: Adenosine receptor A2a (Homo sapiens, UniProt P29274); assay: DRUGMATRIX: Adenosine A2A radioligand binding (ligand: […]); format: cell membranes, HEK293, Membrane; conditions: hek293; Not Active = under 50% inhibition at 10 µM
[6] = biological target: Melanocortin receptor 5 (Homo sapiens, UniProt P33032); format: cell membranes, HEK293, Membrane; conditions: hek293; note: in other assays of this panel Not Active means under 50% inhibition at 10 µM
[7] = biological target: Substance-P receptor (Homo sapiens, UniProt P25103); format: cell membranes, CHO, Membrane; conditions: cho; note: in other assays of this panel Not Active means under 50% inhibition at 10 µM
[8] = biological target: T2, Alpha-1D adrenergic receptor (Homo sapiens, UniProt P25100); format: cell membranes, HEK293, Membrane; note: in other assays of this panel Not Active means under 50% inhibition at 10 µM
T2 sequence (P25100 whole entry): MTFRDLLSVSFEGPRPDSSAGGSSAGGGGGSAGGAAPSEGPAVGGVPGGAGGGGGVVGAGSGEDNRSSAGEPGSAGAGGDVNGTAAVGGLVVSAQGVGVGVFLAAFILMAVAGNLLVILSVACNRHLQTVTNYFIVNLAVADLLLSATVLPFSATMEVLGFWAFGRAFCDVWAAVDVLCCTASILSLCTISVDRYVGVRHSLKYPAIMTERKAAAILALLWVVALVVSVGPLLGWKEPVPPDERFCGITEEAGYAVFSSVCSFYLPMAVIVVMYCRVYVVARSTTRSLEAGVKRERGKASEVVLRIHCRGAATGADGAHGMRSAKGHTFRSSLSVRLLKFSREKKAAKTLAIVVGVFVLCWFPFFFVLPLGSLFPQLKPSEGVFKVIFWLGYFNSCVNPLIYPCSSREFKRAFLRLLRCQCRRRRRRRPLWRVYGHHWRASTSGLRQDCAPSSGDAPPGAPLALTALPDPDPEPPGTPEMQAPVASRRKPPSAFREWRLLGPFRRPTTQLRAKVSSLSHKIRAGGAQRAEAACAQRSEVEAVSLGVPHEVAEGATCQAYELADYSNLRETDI

[9] = biological target: T3, Alpha-2A adrenergic receptor (Homo sapiens, UniProt P08913); format: cell membranes, Sf9, Membrane; conditions: sf9; note: in other assays of this panel Not Active means under 50% inhibition at 10 µM
T3 sequence (P08913 whole entry): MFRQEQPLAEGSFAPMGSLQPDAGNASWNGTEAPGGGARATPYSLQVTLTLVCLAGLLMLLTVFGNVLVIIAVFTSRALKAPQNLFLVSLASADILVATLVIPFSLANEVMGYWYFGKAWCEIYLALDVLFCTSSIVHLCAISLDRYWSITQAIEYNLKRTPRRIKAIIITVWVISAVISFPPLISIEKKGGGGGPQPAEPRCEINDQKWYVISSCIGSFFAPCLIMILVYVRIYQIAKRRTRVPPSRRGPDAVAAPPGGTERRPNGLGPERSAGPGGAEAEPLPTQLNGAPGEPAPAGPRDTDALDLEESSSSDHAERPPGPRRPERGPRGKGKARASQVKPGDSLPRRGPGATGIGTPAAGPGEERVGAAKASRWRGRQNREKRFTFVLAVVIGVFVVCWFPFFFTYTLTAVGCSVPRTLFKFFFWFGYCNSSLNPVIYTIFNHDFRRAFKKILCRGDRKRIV

[10] = biological target: T4, Muscarinic acetylcholine receptor M2 (Homo sapiens, UniProt P08172); format: cell membranes, CHO-K1, Membrane; conditions: cho-k1; note: in other assays of this panel Not Active means under 50% inhibition at 10 µM
T4 sequence (P08172 whole entry): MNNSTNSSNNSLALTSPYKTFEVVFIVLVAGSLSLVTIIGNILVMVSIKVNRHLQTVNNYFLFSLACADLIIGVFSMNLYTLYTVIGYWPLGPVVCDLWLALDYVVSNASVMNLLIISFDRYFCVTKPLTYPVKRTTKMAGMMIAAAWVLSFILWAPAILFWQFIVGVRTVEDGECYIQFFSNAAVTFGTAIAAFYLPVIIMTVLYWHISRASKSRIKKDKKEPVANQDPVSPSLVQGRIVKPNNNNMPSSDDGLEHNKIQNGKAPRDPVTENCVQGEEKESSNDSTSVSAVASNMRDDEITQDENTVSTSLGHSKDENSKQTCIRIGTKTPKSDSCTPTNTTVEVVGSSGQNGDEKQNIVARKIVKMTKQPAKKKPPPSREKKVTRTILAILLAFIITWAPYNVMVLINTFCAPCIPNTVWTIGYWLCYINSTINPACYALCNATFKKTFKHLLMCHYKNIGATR

[11] = DRUGMATRIX: Atrial Natriuretic Factor (ANF) radioligand binding (ligand: [125I] ANF (rat)); format: cell membranes, Cavia porcellus, Dunkin-Hartley, Adrenal gland, Membrane; conditions: Not Active = under 50% inhibition at 10 µM
[12] = DRUGMATRIX: Sodium/nucleoside co-transporter radioligand binding (ligand: nitrobenzylthioinosine); format: cell membranes, Cavia porcellus, Dunkin-Hartley, Cerebral cortex, Membrane; conditions: Not Active = under 50% inhibition at 10 µM

Chain of Adenosine receptor A2a (P29274 whole entry): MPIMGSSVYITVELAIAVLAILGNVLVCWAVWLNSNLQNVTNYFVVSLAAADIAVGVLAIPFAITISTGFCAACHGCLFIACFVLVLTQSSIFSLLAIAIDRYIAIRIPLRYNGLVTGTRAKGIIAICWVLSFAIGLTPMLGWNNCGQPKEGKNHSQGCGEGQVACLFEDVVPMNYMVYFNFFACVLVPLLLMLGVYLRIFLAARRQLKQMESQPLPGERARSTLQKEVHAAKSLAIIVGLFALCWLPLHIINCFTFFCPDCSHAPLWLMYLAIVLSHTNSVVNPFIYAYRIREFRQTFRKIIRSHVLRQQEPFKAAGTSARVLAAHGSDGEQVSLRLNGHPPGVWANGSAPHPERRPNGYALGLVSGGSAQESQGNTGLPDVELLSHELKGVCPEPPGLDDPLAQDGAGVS
Chain of Substance-P receptor (P25103 whole entry): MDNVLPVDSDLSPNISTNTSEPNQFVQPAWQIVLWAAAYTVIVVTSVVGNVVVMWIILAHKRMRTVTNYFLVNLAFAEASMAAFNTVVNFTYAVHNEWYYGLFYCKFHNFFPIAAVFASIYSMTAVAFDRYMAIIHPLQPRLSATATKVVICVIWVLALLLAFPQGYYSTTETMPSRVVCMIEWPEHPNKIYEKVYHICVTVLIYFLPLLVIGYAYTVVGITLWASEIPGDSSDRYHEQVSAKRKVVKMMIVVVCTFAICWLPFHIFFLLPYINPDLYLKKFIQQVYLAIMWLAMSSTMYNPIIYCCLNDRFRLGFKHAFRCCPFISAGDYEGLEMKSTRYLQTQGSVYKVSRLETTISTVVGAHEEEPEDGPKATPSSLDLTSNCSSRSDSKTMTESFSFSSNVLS
Chain of Melanocortin receptor 5 (P33032 whole entry): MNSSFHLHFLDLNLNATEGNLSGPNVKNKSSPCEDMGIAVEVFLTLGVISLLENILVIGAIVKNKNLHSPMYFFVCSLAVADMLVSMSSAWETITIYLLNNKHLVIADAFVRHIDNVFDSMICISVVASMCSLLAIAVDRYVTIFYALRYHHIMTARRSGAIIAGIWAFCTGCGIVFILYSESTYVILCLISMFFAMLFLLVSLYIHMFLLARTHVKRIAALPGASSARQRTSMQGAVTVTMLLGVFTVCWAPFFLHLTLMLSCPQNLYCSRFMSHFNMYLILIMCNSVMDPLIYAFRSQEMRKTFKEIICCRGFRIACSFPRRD

| SMILES | IC50 [1] | Ki [1] | IC50 [2] | IC50 [3] | IC50 [4] | Ki [4] | IC50 [5] | IC50 [6] | IC50 [7] | IC50 ([8]; hek293) | IC50 [9] | IC50 [10] | IC50 [11] | Ki [11] | IC50 [12] | Ki [12] | IC50 ([8]; read-out: IC50) [µM] | Ki ([8]; read-out: Ki) [nM] |
| --- | --- | --- | --- | --- | --- | --- | --- | --- | --- | --- | --- | --- | --- | --- | --- | --- | --- | --- |
| Brc1ccccc1 [BROMOBENZENE] | Not Active | Not Active | Not Active | Not Active | Not Active | Not Active | Not Active | Not Active | Not Active | Not Active | Not Active | Not Active | Not Active | Not Active | Not Active | Not Active |  |  |
| CCCCOC(=O)c1ccc(N)cc1 [BUTAMBEN] | Not Active | Not Active | Not Active | Not Active | Not Active | Not Active | Not Active | Not Active | Not Active | Not Active | Not Active | Not Active | Not Active | Not Active | Not Active | Not Active |  |  |
| CC[C@@]1(O)C(=O)OCc2c1cc1n(c2=O)Cc2cc3ccccc3nc2-1 [CAMPTOTHECIN] | Not Active | Not Active | Not Active | Not Active | Not Active | Not Active | Not Active | Not Active | Not Active | Not Active | Not Active | Not Active | Not Active | Not Active | Not Active | Not Active |  |  |
| COCc1c(C(C)C)nc(C(C)C)c(/C=C/[C@@H](O)C[C@@H](O)CC(=O)O)c1-c1ccc(F)cc1 [CERIVASTATIN] | Not Active | Not Active | Not Active | Not Active | Not Active | Not Active | Not Active | Not Active | Not Active | Not Active | Not Active | Not Active | Not Active | Not Active | Not Active | Not Active |  |  |
| CC(=O)O[C@]1(C(C)=O)CC[C@H]2[C@@H]3C=C(Cl)C4=CC(=O)CC[C@]4(C)[C@H]3CC[C@@]21C [CHLORMADINONE ACETATE] | Not Active | Not Active | Not Active | Not Active | Not Active | Not Active | Not Active | Not Active | Not Active | Not Active | Not Active | Not Active | Not Active | Not Active | Not Active | Not Active |  |  |
| O=C1CCc2cc(OCCCCc3nnnn3C3CCCCC3)ccc2N1 [CILOSTAZOL] | Not Active | Not Active | Not Active | Not Active | Not Active | Not Active | Not Active | Not Active | Not Active | Not Active | Not Active | Not Active | Not Active | Not Active | Not Active | Not Active |  |  |
| O=C(O)c1cn(C2CC2)c2cc(N3CCNCC3)c(F)cc2c1=O [CIPROFLOXACIN] | Not Active | Not Active | Not Active | Not Active | Not Active | Not Active | Not Active | Not Active | Not Active | Not Active | Not Active | Not Active | Not Active | Not Active | Not Active | Not Active |  |  |
| CN(C)CCCC1(c2ccc(F)cc2)OCc2cc(C#N)ccc21 (stereo unspecified) [CITALOPRAM] | Not Active | Not Active | Not Active | Not Active | Not Active | Not Active | Not Active | Not Active | Not Active |  | Not Active | Not Active | Not Active | Not Active | Not Active | Not Active | 3.29 | 1620 |
| COC(=O)[C@H](c1ccccc1Cl)N1CCc2sccc2C1 [CLOPIDOGREL] | Not Active | Not Active | Not Active | Not Active | Not Active | Not Active | Not Active | Not Active | Not Active | Not Active | Not Active | Not Active | Not Active | Not Active | Not Active | Not Active |  |  |
| C[C@]12CCC(=O)C=C1CC[C@@H]1[C@@H]2C(=O)C[C@@]2(C)[C@H]1CC[C@]2(O)C(=O)CO [CORTISONE] | Not Active | Not Active | Not Active | Not Active | Not Active | Not Active | Not Active | Not Active | Not Active | Not Active | Not Active | Not Active | Not Active | Not Active | Not Active | Not Active |  |  |
